Results as given in ChEMBL document CHEMBL1208702, “Use of 2-[(18)F]fluoroethylazide for the Staudinger ligation - Preparation and characterisation of GABA(A) receptor binding 4-quinolones” (Bioorg Med Chem Lett, 2010).

Experiment: Displacement of [3H]Ro151788 from GABA-A receptor in Wistar rat cerebellar membrane after 1 hr by liquid scintillation counting
Type: cell membranes, Cerebellum

O=C(NCCCF)c1c[nH]c2ccc(Cc3ccccc3)cc2c1=O
Ki: 0.13 nM
